Results from US20260217679A1, “CANCER TREATING COMPOUNDS” (UNIVERSITY OF BRADFORD, priority 2023, published 2026).
Like-named read-outs stand apart in the source and are kept apart here.

Legend:
[1] = test system: RH30; assay: Anti-proliferative activity in RMS cell lines, MTT assay; format: cell-based; conditions: read-out: IC50 RH30
Experimental: (§1) Briefly, […] of a cell suspension (~2000 cells/well) was added in fresh, sterile 96-well plates. Afterwards, rhabdomyosarcoma (RMS) cell lines (RH30, RH41 and JR1) were incubated for 24 h at 37° C., 5% CO2 to allow cellular attachment on the surface of the wells. On the next day after cell seeding, cells were treated with the duocarmycin compounds. 20 μL of drug dilution was added into the wells, making up a final volume of 200 μL/well. In untreated control wells, 20 μL of fresh medium was added instead (0.1% DMSO). Duocarmycin stock concentrations were prepared in DMSO; the concentration of the latter in the wells containing the medium and cells never exceeded 0.1% (v/v). The concentrations tested ranged from 100 μM to 1 pM depending on the IC50 of each compound from preliminary screening. Each experiment was tested at least in triplicate, and antiproliferative activity was determined after 96 hours using a standard MTT (3-(4,5-dimethylthiazol-2-yl)-2,5-diphenyltetrazolium bromide) assay.

[2] = test system: JR1; assay: as above; format: cell-based; conditions: read-out: IC50 JR1
Experimental: as §1

[3] = test system: RH41; assay: as above; format: cell-based; conditions: Homo sapiens, read-out: IC50 RH41
Experimental: as §1

[4] = test system: H2AX phosphorylation in MDA-MB-231; assay: H2AX phosphorylation Western Blot as marker of double-stranded DNA damage; format: cell-based, human; conditions: MDA-MB-231, Western Blot, FIG. 1
Source text: The mechanism of action of the naturally occurring duocarmycins is well documented and involves spirocyclization of the seco-duocamycins including those derived from the CBI and other aryl-ring-fused subunits of the duocarmycin alkylating subunit.

[5] = test system: MCF-7; assay: Growth inhibition of MCF-7 (oestrogen receptor positive) breast cancer cell line; format: cell-based; conditions: Homo sapiens
Experimental: (§2) The compounds of the present invention were evaluated for their ability to inhibit the growth of MDA-MB-231 (triple-negative) and MCF-7 (oestrogen receptor positive) breast cancer cell lines. A positive control (PC), seco-CBI-MI, with structure shown below, was used as a baseline for comparison of the efficacy of the compounds of the present invention.

[6] = test system: MDA-MB-231; assay: Growth inhibition of MDA-MB-231 (triple-negative) breast cancer cell line; format: cell-based; conditions: Homo sapiens
Experimental: as §2

[7] = MDA-MB-231, read-out: IC50 MDA MB 231
[8] = MCF7, MCF-7 growth inhibition, read-out: IC50 MCF7
[9] = MDA-MB-231 growth inhibition, read-out: IC50 MDA MB 231

SMILES: COc1ccc2[nH]c(C(=O)N3CC(CCl)c4c3cc(O)c3ccccc43)cc2c1 (centres unmarked) [DP31]
- IC50 ([1]; RH30, 96 hours, MTT): 0.0861 ± 0.0248 nM
- IC50 ([2]; JR1, 96 hours, MTT): 0.243 ± 0.308 nM
- IC50 ([3]; RH41, 96 hours, MTT): 0.0368 ± 0.0316 nM
- DNA damage measured using H2AX phosphorylation [4]: generated DNA damage

SMILES: COc1ccc2[nH]c(C(=O)N3CC(CCl)c4c3cc(-c3ccc(O)cc3)c3ccccc43)cc2c1 (centres unmarked) [DP36]
- IC50 ([1]; Rh30, 96 h): 6.69 ± 4.33 nM
- IC50 ([2]; 96 h): 7.28 ± 6.1 nM
- IC50 ([3]; Rh41, 96 h): 24.9 ± 34 nM
- IC50 ([5]; MCF7, read-out: IC50 MCF7): 20 ± 27.1 nM
- IC50 [6, 7]: 23.3 ± 9.9 nM
- DNA damage measured using H2AX phosphorylation [4]: generated DNA damage

SMILES: O=C(c1cc2cc(O)ccc2[nH]1)N1CC(CCl)c2c1cc(OCc1ccccc1)c1ccccc21 (centres unmarked) [DP40]
- IC50 ([1]; RH30, 96 hours, MTT): 227 ± 307 nM
- IC50 ([2]; JR1, 96 hours, MTT): 1400 ± 1240 nM
- IC50 ([3]; RH41, 96 hours, MTT): 530 ± 514 nM
- IC50 [5, 8]: 1300 ± 100 nM
- IC50 [6, 9]: 2200 ± 200 nM

SMILES: C#CCCC(=O)Oc1ccc2[nH]c(C(=O)N3CC(CCl)c4c3cc(OCc3ccccc3)c3ccccc43)cc2c1 (centres unmarked) [DP42]
- IC50 ([1]; Rh30, 96 h): 81.5 ± 77.3 nM
- IC50 ([2]; 96 h): 278 ± 156 nM
- IC50 ([3]; Rh41, 96 h): 378 ± 209 nM
- IC50 [6, 7]: 3200 ± 2900 nM

SMILES: COc1ccc2[nH]c(C(=O)N3CC(CCl)c4c3cc(-c3ccc(CO)cc3)c3ccccc43)cc2c1 (centres unmarked) [DP44]
- IC50 ([1]; Rh30, 96 h): 2190 ± 3100 nM
- IC50 ([2]; 96 h): 4860 ± 4780 nM
- IC50 ([3]; Rh41, 96 h): 2800 ± 1960 nM
- IC50 ([5]; MCF7, read-out: IC50 MCF7): 4800 ± 4800 nM
- IC50 [6, 7]: 5400 ± 5800 nM

SMILES: COc1ccc2[nH]c(C(=O)N3CC(CCl)c4c3cc(-c3ccc(C)cc3)c3ccccc43)cc2c1 (centres unmarked) [DP45]
- IC50 ([1]; Rh30, 96 h): 56700 ± 37600 nM
- IC50 ([2]; 96 h): 32900 ± 29100 nM
- IC50 ([3]; Rh41, 96 h): 68000 ± 50700 nM
- IC50 ([5]; MCF7, read-out: IC50 MCF7): > 10000 nM
- IC50 [6, 7]: > 10000 nM
- DNA damage measured using H2AX phosphorylation [4]: generated DNA damage

SMILES: COc1ccc2[nH]c(C(=O)N3CC(CCl)c4c3cc(-c3cccc(O)c3)c3ccccc43)cc2c1 (centres unmarked) [DP47]
- IC50 ([1]; Rh30, 96 h): 60.3 ± 49.1 nM
- IC50 ([2]; 96 h): 59.2 ± 27.2 nM
- IC50 ([3]; Rh41, 96 h): 19.2 ± 20.9 nM
- IC50 ([5]; MCF7, read-out: IC50 MCF7): 104 ± 79.8 nM
- IC50 [6, 7]: 206 ± 79.6 nM
- DNA damage measured using H2AX phosphorylation [4]: generated DNA damage

SMILES: COc1ccc2[nH]c(C(=O)N3CC(CCl)c4c3cc(-c3ccc(N)cc3)c3ccccc43)cc2c1 (centres unmarked) [DP48]
- IC50 ([1]; Rh30, 96 h): 355 ± 352 nM
- IC50 ([2]; 96 h): 5170 ± 4280 nM
- IC50 ([3]; Rh41, 96 h): 581 ± 648 nM
- IC50 ([5]; MCF7, read-out: IC50 MCF7): 713 nM
- IC50 [6, 7]: 911 nM

SMILES: C#CCCCC(=O)Oc1ccc2[nH]c(C(=O)N3CC(CCl)c4c3cc(OCc3ccccc3)c3ccccc43)cc2c1 (centres unmarked) [DP51]
- IC50 ([1]; Rh30, 96 h): 1220 ± 830 nM
- IC50 ([2]; 96 h): 18500 ± 9640 nM
- IC50 ([3]; Rh41, 96 h): 2510 ± 1160 nM
- IC50 [6, 7]: > 10000 nM

SMILES: COc1ccc(Nc2cc3c(c4ccccc24)C(CCl)CN3C(=O)c2cc3cc(OC)ccc3[nH]2)cc1 (centres unmarked) [DP59]
- IC50 ([1]; RH30, 96 hours, MTT): 0.376 ± 0.157 nM
- IC50 ([2]; JR1, 96 hours, MTT): 1.33 ± 1.93 nM
- IC50 ([3]; RH41, 96 hours, MTT): 0.298 ± 0.154 nM
- IC50 [5, 8]: 2.5 ± 0.7 nM
- IC50 [6, 9]: 7.6 ± 2.1 nM
- DNA damage measured using H2AX phosphorylation [4]: generated DNA damage

SMILES: CCCCNc1cc2c(c3ccccc13)C(CCl)CN2C(=O)c1cc2cc(OC)ccc2[nH]1 (centres unmarked) [DP63]
- IC50 ([1]; RH30, 96 hours, MTT): 0.101 ± 0.048 nM
- IC50 ([2]; JR1, 96 hours, MTT): 0.217 ± 0.287 nM
- IC50 ([3]; RH41, 96 hours, MTT): 0.0204 ± 0.0114 nM
- IC50 [5, 8]: 0.8 ± 0.3 nM
- IC50 [6, 9]: 1.7 ± 1.4 nM

SMILES: COC(=O)[C@H](CC(C)C)Nc1cc2c(c3ccccc13)C(CCl)CN2C(=O)c1cc2cc(OC)ccc2[nH]1 (some centres unmarked) [DP65]
- IC50 ([1]; RH30, 96 hours, MTT): 0.0763 ± 0.129 nM
- IC50 ([2]; JR1, 96 hours, MTT): 0.323 ± 0.291 nM
- IC50 ([3]; RH41, 96 hours, MTT): 0.00551 ± 0.00229 nM
- IC50 [5, 8]: 8.1 ± 7 nM
- IC50 [6, 9]: 28.3 ± 29 nM
- DNA damage measured using H2AX phosphorylation [4]: generated DNA damage

SMILES: COc1ccc2[nH]c(C(=O)N3CC(CCl)c4c3cc(Nc3ccc(C(F)(F)F)cc3)c3ccccc43)cc2c1 (centres unmarked) [DP70]
- IC50 ([1]; RH30, 96 hours, MTT): 18.9 ± 18.9 nM
- IC50 ([2]; JR1, 96 hours, MTT): 44.6 ± 56.1 nM
- IC50 ([3]; RH41, 96 hours, MTT): 31.2 ± 28.8 nM
- IC50 [5, 8]: 76.7 ± 29 nM
- IC50 [6, 9]: 129 ± 18.9 nM
- DNA damage measured using H2AX phosphorylation [4]: generated DNA damage

SMILES: COc1ccc2[nH]c(C(=O)N3CC(CCl)c4c3ccc3ccc(OCc5ccccc5)cc43)cc2c1 (centres unmarked) [DP77]
- IC50 ([1]; Rh30, 96 h): 3080 ± 2570 nM
- IC50 ([2]; 96 h): 22100 ± 19600 nM
- IC50 ([3]; Rh41, 96 h): 22500 ± 17400 nM
- IC50 ([5]; MCF7, read-out: IC50 MCF7): > 10000 nM
- IC50 [6, 7]: > 10000 nM

SMILES: COc1ccc2[nH]c(C(=O)N3CC(CCl)c4c3ccc3ccc(O)cc43)cc2c1 (centres unmarked) [DP78]
- IC50 ([1]; Rh30, 96 h): 268 ± 130 nM
- IC50 ([2]; 96 h): 3510 ± 1840 nM
- IC50 ([3]; Rh41, 96 h): 500000 ± 416000 nM
- IC50 ([5]; MCF7, read-out: IC50 MCF7): 1020 ± 200 nM
- IC50 [6, 7]: 1080 ± 200 nM

SMILES: COc1ccc(-c2cc3c(c4ccccc24)C(CCl)CN3C(=O)c2cc3cc(OC)ccc3[nH]2)cc1 (centres unmarked) [ICT11038, (1-(Chloromethyl)-5-(4-methoxyphenyl)-1H-benzo[e]indol-3(2H)-yl)(5-methoxy-1H-indol-2-yl)methanone]
- IC50 ([1]; Rh30, 96 h): 35.8 ± 16.4 nM
- IC50 ([2]; 96 h): 801000 ± 207000 nM
- IC50 ([3]; Rh41, 96 h): 121000 ± 95300 nM

SMILES: COCc1ccc(-c2cc3c(c4ccccc24)C(CCl)CN3C(=O)c2cc3cc(OC)ccc3[nH]2)cc1 (centres unmarked) [ICT11039, (1-(Chloromethyl)-5-(4-(methoxymethyl)phenyl)-1H-benzo[e]indol-3(2H)-yl)(5-methoxy-1H-indol-2-yl)methanone]
- IC50 ([1]; Rh30, 96 h): 12800 ± 8460 nM
- IC50 ([2]; 96 h): 10100 ± 5780 nM
- IC50 ([3]; Rh41, 96 h): 1140 ± 500 nM

SMILES: COc1ccc2[nH]c(C(=O)N3CC(CCl)c4c3cc(-c3ccncc3)c3ccccc43)cc2c1 (centres unmarked) [ICT11040, (1-(Chloromethyl)-5-(pyridin-4-yl)-1H-benzo[e]indol-3(2H)-yl)(5-methoxy-1H-indol-2-yl)methanone]
- IC50 ([1]; Rh30, 96 h): 494 ± 267 nM
- IC50 ([2]; 96 h): 861 ± 329 nM
- IC50 ([3]; Rh41, 96 h): 576 ± 405 nM

SMILES: COc1ccc2[nH]c(C(=O)N3CC(CCl)c4c3cc(-c3cccnc3)c3ccccc43)cc2c1 (centres unmarked) [ICT11041, (1-(Chloromethyl)-5-(pyridin-3-yl)-1H-benzo[e]indol-3(2H)-yl)(5-methoxy-1H-indol-2-yl)methanone]
- IC50 ([1]; Rh30, 96 h): 8040 ± 1030 nM
- IC50 ([2]; 96 h): 12200 ± 4580 nM
- IC50 ([3]; Rh41, 96 h): 6000 ± 5120 nM

SMILES: COc1ccc2[nH]c(C(=O)N3CC(CCl)c4c3cc(-c3ccccc3)c3ccccc43)cc2c1 (centres unmarked) [ICT11043, (1-(Chloromethyl)-5-phenyl-1H-benzo[e]indol-3(2H)-yl)(5-methoxy-1H-indol-2-yl)methanone]
- IC50 ([1]; Rh30, 96 h): 56000 ± 17000 nM
- IC50 ([2]; 96 h): 138000 ± 75800 nM
- IC50 ([3]; Rh41, 96 h): 30200 ± 23100 nM

SMILES: COc1ccc2[nH]c(C(=O)N3CC(CCl)c4c3cc(-c3ccccc3O)c3ccccc43)cc2c1 (centres unmarked) [ICT11044, (1-(Chloromethyl)-5-(2-hydroxyphenyl)-1H-benzo[e]indol-3(2H)-yl)(5-methoxy-1H-indol-2-yl)methanone]
- IC50 ([1]; Rh30, 96 h): 124 ± 134 nM
- IC50 ([2]; 96 h): 422 ± 177 nM
- IC50 ([3]; Rh41, 96 h): 291 ± 204 nM

SMILES: COc1ccc2[nH]c(C(=O)N3CC(CCl)c4c3cc(O)c3ccccc43)cc2c1 (centres unmarked) [PC, seco-CBI-MI, reference compound]
- IC50 [5, 8]: 0.69 ± 0.3 nM
- IC50 [6, 9]: 0.62 ± 0.5 nM
